Assay results reported in US20240108732A1, “Formulated and/or Co-Formulated Lipid Nanocarriers Compositions Containing Toll-Like Receptor ("TLR") Agonist Prodrugs Useful In The Treatment of Cancer and Methods Thereof” (Nammi Therapeutics, Inc., priority 2022, published 2024).

How the values were obtained:
TLR7 = molecular target: T1, TLR7 (Mus musculus, UniProt P58681); assay: Example 13: RAW-Blue cells / QUANTI-Blue SEAP reporter assay; format: cell-based; conditions: 24 h incubation
T1 construct: Raw-Blue cells that express a variety of TLRs including TLR7 and TLR8; host or cells: RAW-Blue cells
T1 sequence (P58681 27-1050): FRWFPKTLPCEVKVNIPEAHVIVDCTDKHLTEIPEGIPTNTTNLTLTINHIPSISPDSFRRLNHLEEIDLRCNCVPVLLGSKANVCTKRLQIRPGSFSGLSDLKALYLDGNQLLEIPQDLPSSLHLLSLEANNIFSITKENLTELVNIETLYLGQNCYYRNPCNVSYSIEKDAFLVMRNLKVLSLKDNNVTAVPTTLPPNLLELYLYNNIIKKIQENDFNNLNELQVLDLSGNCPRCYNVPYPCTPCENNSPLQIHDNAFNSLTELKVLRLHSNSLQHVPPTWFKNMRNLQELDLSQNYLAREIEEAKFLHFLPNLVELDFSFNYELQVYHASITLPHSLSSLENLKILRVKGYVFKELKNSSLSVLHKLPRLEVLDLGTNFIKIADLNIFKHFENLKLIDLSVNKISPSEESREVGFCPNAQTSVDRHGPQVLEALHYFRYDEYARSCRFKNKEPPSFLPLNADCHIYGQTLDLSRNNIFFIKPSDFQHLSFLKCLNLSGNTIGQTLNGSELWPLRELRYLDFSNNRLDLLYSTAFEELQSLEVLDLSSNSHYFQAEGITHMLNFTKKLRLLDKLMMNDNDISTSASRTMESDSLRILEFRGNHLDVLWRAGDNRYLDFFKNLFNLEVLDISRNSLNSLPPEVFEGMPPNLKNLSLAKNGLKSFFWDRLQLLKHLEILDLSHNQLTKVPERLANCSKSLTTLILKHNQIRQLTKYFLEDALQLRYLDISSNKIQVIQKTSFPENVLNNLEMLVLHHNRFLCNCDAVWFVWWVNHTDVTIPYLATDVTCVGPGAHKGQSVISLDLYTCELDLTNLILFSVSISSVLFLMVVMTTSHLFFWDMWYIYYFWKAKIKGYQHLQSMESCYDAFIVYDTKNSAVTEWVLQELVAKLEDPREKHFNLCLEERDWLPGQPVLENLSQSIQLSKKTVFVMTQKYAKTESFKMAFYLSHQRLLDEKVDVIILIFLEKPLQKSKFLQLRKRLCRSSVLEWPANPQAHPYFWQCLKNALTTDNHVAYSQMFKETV
Method: By way of background, RAW-Blue™ Cells and QUANTI-Blue™ (InvivoGen, San Diego, CA) assay were utilized. Raw Blue™ express […] Toll-like receptors (“TLRs”) and an NF-κB/AP-1-inducible SEAP (secreted embryonic alkaline phosphatase) reporter gene. Stimulation of these cells with TR12 leads to NF-κB activation through TLR7 which can be measured by detection of SEAP levels. Briefly, RAW-Blue™ Cells were incubated with TR12-SA (TR12-Stearic Acid) and SLNP-TR12 (TR12 Stearic Acid in Solid Lipid Nanoparticle from) at different concentration. After 24 h incubation with the compounds, TLR stimulation was assessed by measuring the levels of SEAP optimal density (OD) using QUANTI-Blue™ assay. ODs were normalized to the control (untreated) group. […] (See, FIG. 21).

human TLR8 = molecular target: T2, human TLR8 (Homo sapiens, UniProt Q9NR97); assay: Example 15: HEK-Blue hTLR8 cells / QUANTI-Blue SEAP assay; format: cell-based; conditions: from RAW-Blue and HEK-Blue hTLR8 results
T2 construct: host or cells: HEK-Blue hTLR8 cells
T2 sequence (Q9NR97 27-1041): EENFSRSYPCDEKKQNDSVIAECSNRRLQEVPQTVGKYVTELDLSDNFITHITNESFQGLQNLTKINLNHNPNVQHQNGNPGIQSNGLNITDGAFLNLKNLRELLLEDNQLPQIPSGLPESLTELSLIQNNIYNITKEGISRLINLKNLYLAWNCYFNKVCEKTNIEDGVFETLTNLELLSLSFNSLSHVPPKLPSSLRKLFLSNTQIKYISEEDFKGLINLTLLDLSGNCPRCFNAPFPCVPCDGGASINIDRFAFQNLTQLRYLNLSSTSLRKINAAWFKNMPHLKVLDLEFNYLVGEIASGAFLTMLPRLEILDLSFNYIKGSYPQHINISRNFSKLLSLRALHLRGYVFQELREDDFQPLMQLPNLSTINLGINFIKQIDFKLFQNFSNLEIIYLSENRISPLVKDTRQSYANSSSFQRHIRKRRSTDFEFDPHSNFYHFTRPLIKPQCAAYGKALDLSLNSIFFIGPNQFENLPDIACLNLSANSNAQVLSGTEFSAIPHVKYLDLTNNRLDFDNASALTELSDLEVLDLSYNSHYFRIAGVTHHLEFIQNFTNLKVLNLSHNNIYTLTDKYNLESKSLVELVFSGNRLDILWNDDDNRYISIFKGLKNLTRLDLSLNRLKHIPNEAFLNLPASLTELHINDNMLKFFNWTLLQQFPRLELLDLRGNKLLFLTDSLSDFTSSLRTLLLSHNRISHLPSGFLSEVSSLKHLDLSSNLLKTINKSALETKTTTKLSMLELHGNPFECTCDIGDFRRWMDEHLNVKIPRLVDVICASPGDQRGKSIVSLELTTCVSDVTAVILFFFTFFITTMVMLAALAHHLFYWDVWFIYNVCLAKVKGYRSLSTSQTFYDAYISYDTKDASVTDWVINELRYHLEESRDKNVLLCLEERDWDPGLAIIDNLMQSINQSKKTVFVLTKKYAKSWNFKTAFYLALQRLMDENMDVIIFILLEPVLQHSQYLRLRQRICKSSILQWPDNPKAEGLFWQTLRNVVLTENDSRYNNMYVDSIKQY
Text: In another experiment, in vitro biological activity of SLNP-TR12 specificity to TLR7 was confirmed using the following experiment. […] It is noted that despite Raw-Blue cells that express a variety of TLRs including TLR7 and TLR8, the HEK-Blue™ hTLR8 cells dominantly express the human TLR8 gene and an NF-κB/AP-1-inducible SEAP (secreted embryonic alkaline phosphatase) reporter gene. Thus, SEAP levels produced upon TLR8 stimulation can be readily determined by performing the assay in HEK-Blue™ Detection.
Concurrently, HEK-Blue TLR8 were incubated with SLNP-TR5 or SLNP-TR12 at different concentrations. After 24 h incubation with the compounds, TLR stimulation was assessed by measuring the levels of SEAP optimal density (OD) using QUANTI-Blue™ assay. ODs were normalized to the control (untreated) group (See, FIG. 23(B)).

TLR stimulation (SEAP OD normalized to untreated control) (TLR7) | specificity TLR7 versus TLR8 (human TLR8) | SMILES
stimulation of TLR-7 |  | CCCCCCCCCCCCCCCCCC(=O)OCOC(=O)N1CCN(c2ccc(Cn3c(=O)[nH]c4c(N)nc(NCCCC)nc43)cn2)CC1 [TR12 prodrug]
 | stimulates both TLR7 and TLR8 | CCCCCCCCCCCCCCCCCC(=O)NCCCCOn1c(CCCC)nc2c(N)nc3ccccc3c21 [TR5, Telratolimod]
